These results are taken from patent US20240298601A1, “SESAME PLANTS RESISTANT TO ACETOLACTATE SYNTHASE-INHIBITING HERBICIDES, COMPOSITIONS AND METHODS FOR PRODUCING SAME” (Yissum Research Development Company of The Hebrew …, priority 2021, published 2024).

For assay [1], the system named is SiRM plants (mutant SiALS Ala188Val). The conditions noted are these: for ED50 SiRM: herbicide rate reducing plant growth (shoot DW) by 50%, 16 DAT, n=5, calculated from fitted curve, for Imazamox above the tested rates; for RI (resistance index): resistance/susceptible ratio of the ED50 (SiRM vs WT); for reduction in shoot DW, SiRM / reduction in shoot length, SiRM: under the recommended dose; for response of SiRM plants in dose-response assay: increasing doses.

For assay [2], the system named is wild type (S-416) sesame plants. The assay is described as follows: Herbicides dose-response assay (post-emergence, pots), wild type. The format is in vivo, Sesamum indicum. To be noted: for ED50 WT: herbicide rate reducing plant growth (shoot DW) by 50%, 16 DAT, sprayed at two true leaves, n=5; for reduction in shoot DW, WT / reduction in shoot length, WT: under the recommended dose; for response of WT plants in dose-response assay: increasing doses.

For the next assay, the system named is Amaranthus palmeri. Briefly: Imazamox post-emergence field experiment, weed control. The conditions noted are these: Imazamox 40 g a.i. h^−1, non-treated ~12 plants m^−1. In kind it is in vivo. Here is the method:
The experiment was conducted in the Experimental Farm of the Hebrew University of Jerusalem in Rehovot, Israel ([…]; 54 m above sea level). The soil at this location is brown-red, degrading, sandy soil (Rhodoxeralf), composed of 76% sand, 8% silt, and 16% clay. […] Each plot consisted of a 5-meter row, with a sowing density of 7-plants m^−1 (n=6). At the end of the season, the survival rate was analyzed (number of plants per plot) and the plants in the plot were harvested. Samples were threshed using a laboratory thresher (Wintersteiger AG LD 350, Austria) and after sifting, the seeds were weighed to obtain seed yield.
To test the efficiency of Imazamox for weed control, Amaranthus palmeri was used as a model. Seeds of A. palmeri were sown (20-seeds m-1) as competitor weeds alongside the two sesame lines described above. As a negative control, plots that were not treated were used. At the end of the experiment, the number of A. palmeri plants per plot was counted.

A further assay relates to WT (S-416) plants. Briefly: Physiological characterization under Imazamox, WT parental line. The format is in vivo, Sesamum indicum. To be noted: Imazamox 48 g a.i. h^−1. The procedure: (§1) A cross between SiRM (♂) and the WT (♀) was made to produce F1 seeds. […] The pots were placed in a growth chamber under long-day conditions (16/8 light/dark and 32/25° C.). […] Plants were characterized daily for canopy coverage (Canopeo software, Oklahoma State University, USA; Patrignani and Ochsner, 2015. Agronomy Journal, 107:2312-2320) and gas exchange (IRGA 6800; Li-Cor, Lincoln, Nebraska, USA), over the next 11 days. At the end of the experiment, 21 DAT, the aboveground material was harvested, oven-dried (80° C., 48 h), and weighed to obtain shoot DW.

For another assay, the system named is WT (S-416) sesame. The assay is described as follows: Imazamox post-emergence field experiment, WT sesame. The format is in vivo, Sesamum indicum. The conditions noted are these: Imazamox 40 g a.i. h^−1.
In another assay the test system is WT plants (S-416). Briefly: Imazamox spraying for resistance validation, WT. The format is in vivo, Sesamum indicum. To be noted: Imazamox 48 g a.i. ha^−1; seven days after spraying.
The subject of assay [3] is SiRM plants. Briefly: Imazamox post-emergence field experiment, SiRM sesame. The format is in vivo, Sesamum indicum.
The test system of the next assay is mutant plants (SiRM). The assay is described as follows: Imazamox spraying for resistance validation, M3 mutant plants. The conditions noted are these: Imazamox 48 g a.i. ha^−1; seven days after spraying.
The test system of assay [4] is SiRM plants. Briefly: Physiological characterization under Imazamox, SiRM parental line. In kind it is in vivo, Sesamum indicum. The conditions noted are these: Imazamox 48 g a.i. h^−1. The procedure:
as §1

Assay [5] relates to hybrid (F1) plants (SiRM x WT). Briefly: Physiological characterization of F1 hybrid plants under Imazamox. The format is in vivo, Sesamum indicum. The conditions noted are these: Imazamox 48 g a.i. h^−1. Here is the method: as §1

Description for mutant plants (SiRM): Genomic DNA was extracted using the CTAB protocol, with modification for sesame as described before (Teboul et al., 2020. Genes, 11, 1221). To test possible mutation(s) in the SiALS gene, a targeted sequencing was applied using four primer pairs covering the whole gene sequence (Table 1) according to the sequenced sesame genome (Zhongzhi No. 13; Wang et al., 2014. Genome Biology, 15:1-13). The gene was amplified, and PCR products were sequenced (HUJI genome center, Israel). Sequence alignment was performed using the Clustal Omega tool (Madeira et al., 2019. Nucleic Acids Research, 47:636-641).

For `COc1ncc(F)c2nc(S(=O)(=O)Nc3c(F)cccc3F)nn12` [Florasulam, N-(2,6-difluorophenyl)-8-fluoro-5-methoxy-[1,2,4]triazolo[1,5-c]pyrimidine-2-sulfonamide], in [1], the “ED50 SiRM” value was 62 g a.i. ha^−1 and the “RI (resistance index)” value is recorded as 2. The “ED50 WT” value in assay [2] turned out to be 31 g a.i. ha^−1.
On to `COc1cc(OC)nc(NC(=O)NS(=O)(=O)c2cc(NC=O)ccc2C(=O)N(C)C)n1` [Foramsulfuron, 2-[(4,6-dimethoxypyrimidin-2-yl)carbamoylsulfamoyl]-4-formamido-N,N-dimethylbenzamide], for which, in assay [1], the “ED50 SiRM” value is reported as 165 g a.i. ha^−1; the “RI (resistance index)” value came out at 3.95; the “reduction in shoot DW, SiRM” value was 8%; the “reduction in shoot length, SiRM” value is on record as 58%. For the same compound, in assay [2], the “ED50 WT” value was found to be 41 g a.i. ha^−1; the “reduction in shoot DW, WT” value was found to be 25%; the “reduction in shoot length, WT” value worked out at 64%.
In the case of `COCc1cnc(C2=NC(C)(C(C)C)C(=O)N2)c(C(=O)O)c1` (centres unmarked) [Imazamox, 5-(methoxymethyl)-2-(4-methyl-5-oxo-4-propan-2-yl-1H-imidazol-2-yl) pyridine-3-carboxylic acid], in the assay with Amaranthus palmeri, the “number of A. palmeri plants” value was ~0 A. palmeri plants per meter plot. Further, the “increment in shoot DW compared with untreated control plants” value in assay [1] (SiRM, low doses of 3, 6 and 12 g a.i. h^−1) turned out to be 50%. For the same compound, in assay [1], the “ED50 SiRM” value was 823 g a.i. ha^−1 and the “RI (resistance index)” value is reported as 45. The “state of WT plants at the end of the experiment” value in the assay with WT (S-416) plants (21 DAT) is reported as “fully eradicated”. In addition, the “assimilation rate of WT” value in the assay with WT (S-416) plants (after 48 h) is recorded as under 20%. In addition, the “reduction in WT sesame stand” value in the assay with WT (S-416) sesame (field, P<0.0001) is 75%. The “seed yield per plant, WT” value in the assay with WT (S-416) sesame (weed-free control 3.6, P=0.0015) was 0.93 g per plant. In addition, in the assay with WT (S-416) sesame (weed-free control 19, P=0.0002), the “seed yield per plot, WT” value turned out to be 1.6 g. Further, the “visual symptoms, WT” value in the assay with WT plants (S-416) is “reduced growth and meristem damages”. In the assay with SiRM plants [3] (Imazamox 40 g a.i. h^−1, control 16.7, P=0.02), the “seed yield per plot, SiRM” value came to 31.5 g. Further, the “effect on the SiRM plots stand” value in the assay with SiRM plants [3] (Imazamox 40 g a.i. h^−1, field) is “no significant effect”. Besides, the “seed yield per plant, SiRM” value with SiRM plants [3] (Imazamox 40 g a.i. h^−1, weed-free control 2.88, P=0.011) worked out at 6.05 g per plant. Further, in the assay with SiRM plants [3] (field conditions, post-emergence), the “yield of SiRM compared to the corresponding weed-free UTC” value is recorded as “two-fold greater yield”. The “visual symptoms, SiRM” value in the assay with mutant plants (SiRM) was “did not display any visual symptoms”. Besides, in the assay with SiRM plants [4] (21 DAT), the “state of SiRM plants at the end of the experiment” value is given as “showed no effect of Imazamox treatment”. Further, in the assay with SiRM plants [4] (after 48 h), the “recovery of assimilation, SiRM” value is “recover completely and did not differ from the UTC plants”. Besides, in [2], the “ED50 WT” value came out at 18 g a.i. ha^−1. Besides, the “dose at which WT plants already exhibited visual symptoms and reduced shoot DW” value in assay [2] (post-emergence dose-response) is listed as 6 g a.i. ha^−1. In assay [5], the “recovery of assimilation, hybrid plants” value is reported as “after six days they fully recovered”. Moreover, in assay [5] (21 DAT), the “reduction in plant height, hybrid plants” value was about 40% and the “reduction in shoot DW, hybrid plants” value is about 35%. Besides, the “nodes to the first flower, hybrid plants treated” value in assay [5] (UTC 5.6) is 11.4 nodes. The “nodes length, hybrid plants treated” value in [5] (UTC 8.0) is on record as 2.4 cm. In addition, in assay [5] (UTC 44.6), the “height of first flower bud, hybrid plants treated” value was found to be 27.6 cm.
`CCc1cnc(C2=NC(C)(C(C)C)C(=O)N2)c(C(=O)O)c1` (centres unmarked) [Imazethapyr, 5-ethyl-2-(4-methyl-5-oxo-4-propan-2-yl-1H-imidazol-2-yl) pyridine-3-carboxylic acid]: in assay [1] (160 g a.i. h^−1), the “state of SiRM plants at the highest dosage” value was “viable and fully recovered”. In assay [1], the “ED50 SiRM” value is 161 g a.i. ha^−1 and the “RI (resistance index)” value worked out at 48. Further, the “dose up to which SiRM plants were not affected” value in assay [1] (post-emergence dose-response) is on record as at most 80 g a.i. h^−1. For the same compound, the “effect on WT plants at field recommended dosage” value in assay [2] (20 g a.i. h^−1) is recorded as “deadly for the plants”. In assay [2], the “ED50 WT” value was determined as 3.7 g a.i. ha^−1.
Regarding `CCCOc1nn(C(=O)NS(=O)(=O)c2ccccc2C(=O)OC)c(=O)n1C` [Propoxycarbazone, methyl 2-[(4-methyl-5-oxo-3-propoxy-1,2,4-triazole-1-carbonyl)sulfamoyl]benzoate], in assay [1], the “ED50 SiRM” value was 96 g a.i. ha^−1, the “response of SiRM plants in dose-response assay” value is reported as “able to maintain growth (and develop flowering buds) up to the recommended dose” and the “RI (resistance index)” value was 8. In assay [2], the “ED50 WT” value was 12 g a.i. ha^−1 and the “response of WT plants in dose-response assay” value is on record as “severe response of the WT plants already at a low dose of ⅛X”.
As to `COc1cc(OC)nc(Sc2cccc(Cl)c2C(=O)O)n1` [Pyrithiobac sodium, sodium;2-chloro-6-(4,6-dimethoxypyrimidin-2-yl)sulfanylbenzoate], in assay [1], the “ED50 SiRM” value is reported as 202 g a.i. ha^−1; the “response of SiRM plants in dose-response assay” value is reported as “able to survive up to the recommended dose”; the “RI (resistance index)” value worked out at 20.5; the “reduction in shoot length, SiRM” value amounted to 66%. In assay [2], the “ED50 WT” value is 9.8 g a.i. ha^−1 and the “response of WT plants in dose-response assay” value was “lethal for both lines”.
Turning to `COc1cc(OC)nc(NC(=O)NS(=O)(=O)c2ncccc2OCC(F)(F)F)n1` [Trifloxysulfuron, 1-(4,6-dimethoxypyrimidin-2-yl)-3-[3-(2,2,2-trifluoroethoxy)pyridin-2-yl]sulfonylurea], in [1], the “ED50 SiRM” value is 69 g a.i. ha^−1; the “RI (resistance index)” value stood at 2; the “reduction in shoot DW, SiRM” value came out at 18%; the “reduction in shoot length, SiRM” value turned out to be 7%. In assay [2], the “ED50 WT” value was determined as 33 g a.i. ha^−1; the “reduction in shoot DW, WT” value is 63%; the “reduction in shoot length, WT” value was found to be 74%.
